What was measured:
HEp-2 tumors = test: Electroporation therapy of HEp-2 tumors implanted subcutaneously in nude mice (intratumoral drug plus bipolar square pulses); type: in vivo, BALB/c A nu/nu mice
Experimental: BALB/c A nu/nu mice were surgically implanted with HEp-2 tumors in a subcutaneous sac made in the right flank of nude mice. The tumors 34 were allowed to grow and were treated when their average size was about 80 mm^3. The drug, bleomycin, 0.5 units dissolved in 0.15 ml of saline, was injected in each mouse intratumorally using a 30 gauge needle. The drug was injected very slowly at the tumor base and the needle direction rotated (fanning technique) for uniform drug distribution in the tumor 34. The mice in the control were only pulsed D−E+; D=Drug, E=Electric field, +/−denote presence or absence, respectively) while those in the treated group were pulsed and received drug (D+E+). A time lapse of 10+/−1 minute was maintained between the drug injection and the application of electric pulse to allow bleomycin to spread uniformly throughout the tumor 34. The electrical pulses, generated by the prototype bipolar square wave pulse generator, were delivered to the tumor 34 through a 6-needle array (see for example, U.S. Pat. No. 5,702,359 herein incorporated by reference), inserted to the depth of the tumor 34. […] The mice in both the control and pulse-treated groups were monitored every day for mortality and sign of any other disease.
FIG. 16 illustrates the results for the experimental and control groups.

[1] = octanol and water; cited from earlier work

bleomycin
tumor volume (HEp-2 tumors; D+E+ group, versus substantial increase in control group D-E+): decreased
treated mice with complete tumor regression (HEp-2 tumors; D+E+ group, bleomycin 0.5 units in 0.15 ml saline intratumorally, bipolar square pulses via 6-needle array 10+/-1 min later, 65 days following treatment, 7/8 mice): 87.5%
treated mice with partial regression (HEp-2 tumors; D+E+ group, bleomycin 0.5 units intratumorally plus bipolar square pulses, 65 days following treatment, 1/8 mice): 12.5%
tumor reaction to electroporation therapy (HEp-2 tumors; nearly all the mice treated by both the drug (D) and the pulse (E)): severe early edema, and later necrosis of the tumor
extent of partial tumor regression (HEp-2 tumors; the 1/8 D+E+ mouse with partial regression): > 80%
log P [1]: very negative

— patent US7054685B2, “Method and apparatus for reducing electroporation-mediated muscle reaction and pain response” (Genetronics, Inc., priority 1999, dated 2006)
